In brackets after ≈: the same amount, converted by molar mass. Some results are limits rather than exact numbers.

What is called MIC90 is an inhibitory concentration at the 90% level, which refers to growth in some studies and to a panel of isolates in others. Low readings indicate higher susceptibility, high ones lower susceptibility.

Test [1] has as its system C. glabrata, Fluconazole, Voriconazole, Itraconazole and/or Caspofungin resistant isolates. In words: Susceptibility of resistant clinical isolates (MIC, broth dilution). The note with it: for MIC90: Nakaseomyces glabratus. It is filed as cell-based. The method, then:
The efficacy of compound IV″ was investigated on 563 clinical isolates of 33 human fungal pathogens. […] For species with n≧10, the MIC90 (MIC, minimal inhibitory concentration) is given as ng/ml. For species with n≦10, the MIC range is given as ng/ml. 24 h and 48 h reads are indicated (Table 1).
The MIC90 was calculated for the indicated species.

Test [2] deals with C. albicans, Fluconazole, Voriconazole, Itraconazole and/or Caspofungin resistant isolates. Described as above. The note with it: for MIC90: Candida albicans. It is filed as cell-based.

With `O=C([O-])CCCCCCC/C=C\C#CC#Cc1ccco1.[K+]` [Compound IV″, potassium (Z)-14-(furan-2-yl)tetradeca-9-en-11,13-diynoate], the MIC90 in test [1] turned out to be 0.02 µg/mL; in test [2], 0.0025 µg/mL. Moreover, the “MIC90/MIC range 48 h” value in test [1] (resistant C. glabrata isolates (n = 21), MIC90, 48 h) stood at 0.02 µg/mL; in test [2] (resistant C. albicans isolates (n = 20), MIC90, 48 h) it was 0.0025 µg/mL.

On to `C[C@@H](c1ncncc1F)[C@](O)(Cn1cncn1)c1ccc(F)cc1F` [Voriconazole], for which the MIC90 in test [1] was 0.5 µg/mL (≈ 1.43 µM); in test [2], greater than 0.5 µg/mL.

Source of the values: US8722910B2, “Diyne compositions” (Evolva AG, priority 2009, dated 2014).
